Measured values as given in patent publication EP0461264A1, “ETHYNYLPHENYL DERIVATIVE, PRODUCTION THEREOF, AND REMEDY FOR DISEASES OF CIRCULATORY ORGANS CONTAINING THE SAME AS ACTIVE INGREDIENT” (KAKEN PHARMACEUTICAL CO., LTD., priority 1989, dated 1991).
Where a name gives a salt, the structure may show the parent alone. Read-outs that look alike come from different tables or passages of the source.

Legend:
[1] = system: spontaneously hypertensive rats; assay: Activity against blood pressure (Test Example 1-1), tail-cuff measurement after oral administration; format: in vivo; details: Rattus norvegicus
Experimental: Male spontaneously hypertensive rats (20 to 30 weeks) were employed. After being heated in a heating box at 45 ° C for about 5 minutes, the rats were put in holders for measuring blood pressure, and blood pressure cuffs were set on the rats. After the rat's heart rate was stabilized, blood pressure of each rat was measured by a sphygmomanometer for rat (8002e, made by W + W Co., Ltd.) before the administration, and one hour, three hours and six hours after the administration. Each test compound dissolved in a 0.5 % solution of methyl cellulose was administered orally in a volume of 5 mℓ/kg.
Change of the blood pressure was calculated by the following formula.
(§1) Change rate (%) = [(Measured value after administration - Measured value before administration)/Measured value before administration] x 100

[2] = system: convulsion caused by pentylenetetrazole; assay: Activity against convulsion caused by pentylenetetrazole (Test Example 6); format: in vivo, Slc: ddy male mice; details: summary of Table 4
Experimental: Slc: ddy male mice weighing 24 to 32 g (5 weeks) were bred under an environment of 22° to 24° C room temperature and 60 % humidity for 1 week, and then the bred mice were subjected to a test. The test was carried out as the following procedure. One hour after the oral administration of a test compound, 40 mg/kg of pentylenetetrazole was administered in a caudal vein. Appearance of tonic extensive convulsion was measured as an indication, and anticonvulsive activity was examined. Each test compound was suspended in a 0.5 % solution of methyl cellulose, which was used for a control group.

angiotensin II = assay: Inhibitory activity against angiotensin II, constriction response of ileum preparations (Test Example 5); format: cell-based, Hartrey male guinea pigs
Experimental: From Hartrey male guinea pigs weighing about 500 g, ileum preparations were prepared. […] Thereinto 3 x 10^-8M of angiotensin II was added and constriction response of each preparation was measured through a isometoric transducer (made by Nihon Koden Kogyo Co., Ltd.). Before the addition of angiotensin II, a compound of the present invention or saralasin was previously added into a Magnus trough. Contractive responses in both cases were compared and Inhibition rate was calculated by the following formula.
Angiotensin II Inhibition rate = (1 - Tension in case of adding test compound/Tension of control) x 100

[3] = system: atrioventricular conduction system; details: rat, in vivo, iv
[4] = Acute toxicity (Test Example 7); details: rat, in vivo; oral administration, death rate after 7 days; read-out: Rat LDso
Experimental: In each group 5 Slc: Wistar male rats weighing 100 g to 114 g (4 weeks) were employed. The compound No. 1 was administered orally thereto and with death rate after 7 days a value of acute toxicity was measured.
Rat LDso = 300 to 1000 mg/kg (oral administration)

[5] = system: left circumflex coronary artery and right vertebral artery blood flow; assay: Activity against blood flow in anesthetized dogs (Test Example 4); format: in vivo, Beagle dogs; details: intravenous, compared with nicardipine or nimodipine, Figure 4
Experimental: Beagle dogs weighing 7 to 14 kg were employed, irrespective of sex. Dogs were anesthetized by intravenously administering 30 mg/kg of pentobarbital sodium (Nembutal). During the test […] of pentobarbital was injected continually into each dog. A endotracheal tube was inserted into each trachea. Incision was performed along the midline of the chest and a heart was exposed. Probes of a electromagnetic flowmeter (made by Nihon Koden Kohgyo Co., Ltd.) were set on a left circumflex coronary artery and a right vertebral artery. Each parameter was recorded simultaneously by polygragh (made by Nihon Koden Kogyo Co., Ltd.). […] Change of blood flow was calculated by the following Change rate.
as §1

[6] = system: Spontaneous hypertensive male rats; assay: Duration of blood pressure reduction activity (Test Example 1-2), direct aortic pressure without anesthesia; format: in vivo; details: oral, 3 mg/kg or 10 mg/kg, Figure 1
Experimental: Spontaneous hypertensive male rats (35 weeks) were employed. Before the day the test was carried out, rats were anesthetized with ether, and then, a polyethylene tube was inserted into an aorta abdominalis of the each rat. The other end of the polyethylene tube was led out of the rat's body, and the led polyethylene tube was connected with a pressure transducer. Blood pressure of each rat was measured by a polygraph (RM-85, made by Nihon Koden Kohgyo Co., Ltd.) without anesthesia before the administration, at intervals of one hour for eight hours after the administration and 24 hours after the administration.
Each test compound disolved in a 0.5 % solution of methyl cellulose was administered orally in a volume of 5 m í/kg and in a dose of 3 mg/kg or 10 mg/kg.
As is clear from Figure 1, blood pressure reduction activity of the compound No. 1 lasted for at least eight hours.

[7] = system: model of vasopressin myocardial ischemia; assay: Activity against a model of vasopressin myocardial ischemia (ST wave depression, Test Example 3); format: in vivo, Donryu strain male rats; details: intravenous, five minutes before vasopressin 0.3 µg/kg, compared with nicardipine or nifedipine, Figure 3
Experimental: In accordance with a method of Hiramatu et al. (Japanese Journal Pharmacology 20,313 to 324,1970), Donryu strain male rats weighing 142 to 265 g were employed. Rats were anesthetized by intraperitoneally administering 60 mg/kg of pentobarbital sodium. After intravenous administration of 0.3 µg/kg of vasopressin, electrocardiogram (lead II) was recorded every one minute for five minutes. The maximum depression of ST wave in electrocardiogram was measured as an indication of myocardial ischemia. Five minutes before the administration of vasoperessin, each test compound dissolved in a mixted solution containing 20 % of propylen glycol and 5 % of glucose, was administered intravenously in a dose of 1 mt/kg.

[8] = 1 h, one hour after administration, read-out: Change rate of blood pressure 1 hr. value
[9] = 3 h, three hours after administration, read-out: Change rate of blood pressure 3 hr. value
[10] = 6 h, six hours after administration, read-out: Change rate of blood pressure 6 hr. value

C#Cc1cccc(C2C(C(=O)OC)=C(C)NC(C)=C2C(=O)OCCN2CCN(C(c3ccc(F)cc3)c3ccc(F)cc3)CC2)c1 (stereo not shown) [compound 4, 4-(3-ethynylphenyl)-3-methoxycarbonyl-2,6-dimethyl-5-(N-di-4-fluorophenylmethylpiperazinylethoxycarbonyl)-1,4-dihydropyridine]
change in vivo at 10 mg/kg [1, 8]: -41.2% | change in vivo at 10 mg/kg [1, 9]: -40.9% | change in vivo at 10 mg/kg [1, 10]: -35.7%

COC(=O)C1=C(C)NC(C)=C(C(=O)OCCN(C)Cc2ccccc2)C1c1cccc([N+](=O)[O-])c1 (stereo not shown) [Nicardipine, 2-(N-benzyl-N-methylamino)ethyl, methyl 2,6-dimethyl-4-(3-nitrophenyl)-1,4-dihydropyridinedicarboxylate hydrochloride, reference compound]
change in vivo at 10 mg/kg [1, 8]: -35% | change in vivo at 10 mg/kg [1, 9]: -3.5% | change in vivo at 10 mg/kg [1, 10]: -2%

O=C1NC(=O)C(c2ccccc2)(c2ccccc2)N1 [Diphenylhidantoin, reference compound]
anticonvulsive activity [2]: showing anticonvulsive activity

COCCOC(=O)C1=C(C)NC(C)=C(C(=O)OC(C)C)C1c1cccc([N+](=O)[O-])c1 (stereo not shown) [Nimodipine, isopropyl, 2-methoxyethyl 2,6-dimethyl-4-(3-nitrophenyl)-1,4-dihydropyridinedicarboxylate, reference compound]
change in vivo at 10 mg/kg [1, 8]: -11% | change in vivo at 10 mg/kg [1, 9]: -11% | change in vivo at 10 mg/kg [1, 10]: -10.2%

C#Cc1cccc(C2C(C(=O)OC)=C(C)NC(C)=C2C(=O)OC(C)CN2CCN(C(c3ccccc3)c3ccccc3)CC2)c1 (stereo not shown) [compound 37, 4-(3-ethynylphenyl)-3-methoxycarbonyl-2,6-dimethyl-5-[2-(N-diphenyl-methylpiperazinyl)-1-methylethoxycarbonyl]-1,4-dihydropyridine]
change in vivo at 30 mg/kg [1, 8]: -38.1% | change in vivo at 30 mg/kg [1, 9]: -44.7% | change in vivo at 30 mg/kg [1, 10]: -48.7%

C#Cc1cccc(F)c1C1C(C(=O)OC)=C(C)NC(C)=C1C(=O)OCCN1CCN(C(c2ccccc2)c2ccccc2)CC1 (stereo not shown) [compound 2, 4-(2-ethynyl-6-fluorophenyl)-3-methoxycarbonyl-2,6-dimethyl-5-(N-diphenylmethylpiperazinylethoxycarbonyl)-1,4-dihydropyridine]
change in vivo at 30 mg/kg [1, 8]: -25% | change in vivo at 30 mg/kg [1, 9]: -22.5% | change in vivo at 30 mg/kg [1, 10]: -10%

C#Cc1cccc(C2C(C(=O)OC)=C(C)NC(C)=C2C(=O)OCCCN2CCN(c3ccccc3OC)CC2)c1 (stereo not shown) [compound 18, 4-(3-ethynylphenyl)-3-methoxycarbonyl-5-[3-(N-2-methoxyphenyl-piperazinyl)propoxycarbonyl]-2,6-dimethyl-1,4-dihydropyridine]
change in vivo at 10 mg/kg [1, 8]: -5.3% | change in vivo at 10 mg/kg [1, 9]: -12.4% | change in vivo at 10 mg/kg [1, 10]: -14.3%

C#Cc1cccc(C2C(C(=O)OC)=C(C)NC(C)=C2C(=O)OCCN2CCN(C(c3ccc(C)cc3)c3ccc(C)cc3)CC2)c1 (stereo not shown) [compound 5, 4-(3-ethynylphenyl)-3-methoxycarbonyl-2,6-dimethyl-5-(N-di-4-methyl-phenylmethylpiperazinylethoxycarbonyl)-1,4-dihydropyridine]
change in vivo at 10 mg/kg [1, 8]: -41.5% | change in vivo at 10 mg/kg [1, 9]: -41.5% | change in vivo at 10 mg/kg [1, 10]: -29.2%

Saralasin [reference compound]
Angiotensin II Inhibition rate (%) (angiotensin II; Concentration 10^-7 M, 3 x 10^-8M angiotensin II): 47.3%

C#Cc1cccc(C2C(C(=O)OCCN3CCN(C(c4ccccc4)c4ccccc4)CC3)=C(C)NC(N)=C2C(=O)OCC)c1 (stereo not shown) [compound 26, 4-(3-ethynylphenyl)-3-ethoxycarbonyl-2-amino-6-methyl-5-(N-diphenylmethylpiperazinylethoxycarbonyl)-1,4-dihydropyridine]
change in vivo at 30 mg/kg [1, 8]: -38.8% | change in vivo at 30 mg/kg [1, 9]: -43.8% | change in vivo at 30 mg/kg [1, 10]: -41.5%

C#Cc1cccc(C2C(C(=O)OC)=C(C)NC(C)=C2C(=O)OCCN2CCN(C(c3ccccc3)c3ccccc3)CC2)c1 (stereo not shown) [Compound No. 1, 4-(3-ethynylphenyl)-3-methoxycarbonyl-2,6-dimethyl-5-(N-diphenyl-methylpiperazinylethoxycarbonyl)-1,4-dihydropyridine]
anticonvulsive activity [2]: did not show the activity | inhibition at 1 µM (angiotensin II; Cavia porcellus, Concentration 10^-6 M, 3 x 10^-8M angiotensin II, read-out: Angiotensin II Inhibition rate (%)): 71.1% | inhibition at 0.1 µM (angiotensin II; Cavia porcellus, Concentration 10^-7 M, 3 x 10^-8M angiotensin II, read-out: Angiotensin II Inhibition rate (%)): 56.2% | inhibition at 0.01 µM (angiotensin II; Cavia porcellus, Concentration 10^-8 M, 3 x 10^-8M angiotensin II, read-out: Angiotensin II Inhibition rate (%)): 6.5% | Inhibitory activity against angiotension II (angiotensin II; compared with saralasin, positive control drug): the same extent of Inhibitory activity against angiotension II as that of saralasin | influence on artrioventricular conduction system (change rate of PQ interval) [3]: less influence on artrioventricular conduction system as compared with nicardipine | change in vivo at 10 mg/kg [1, 8]: -39% | change in vivo at 10 mg/kg [1, 9]: -45.2% | change in vivo at 10 mg/kg [1, 10]: -43.3% | LD50 at 168 h [4]: 300 to 1000 mg/kg | activity for increasing coronary blood flow [5]: greater activity | activity for increasing vertebral blood flow [5]: greater activity | Duration of blood pressure reduction activity [6]: at least eight | antimyocardial ischemia activity (maximum depression of ST wave) [7]: greater antimyocardial ischemia activity than that of nicardipine or nifedipine
